Assay results: ChEMBL document CHEMBL3997794, “Design and synthesis of benzodiazepine analogs as isoform-selective human lysine deacetylase inhibitors” (Eur J Med Chem, 2017)

Columns and labels:
[1] = target: T1, Protein deacetylase HDAC6 (Homo sapiens, UniProt Q9UBN7); assay: Inhibition of human KDAC6 using FITC-labeled histone H4 acetylated peptide as substrate after 60 mins by fluorescence assay
T1 sequence (Q9UBN7 whole entry): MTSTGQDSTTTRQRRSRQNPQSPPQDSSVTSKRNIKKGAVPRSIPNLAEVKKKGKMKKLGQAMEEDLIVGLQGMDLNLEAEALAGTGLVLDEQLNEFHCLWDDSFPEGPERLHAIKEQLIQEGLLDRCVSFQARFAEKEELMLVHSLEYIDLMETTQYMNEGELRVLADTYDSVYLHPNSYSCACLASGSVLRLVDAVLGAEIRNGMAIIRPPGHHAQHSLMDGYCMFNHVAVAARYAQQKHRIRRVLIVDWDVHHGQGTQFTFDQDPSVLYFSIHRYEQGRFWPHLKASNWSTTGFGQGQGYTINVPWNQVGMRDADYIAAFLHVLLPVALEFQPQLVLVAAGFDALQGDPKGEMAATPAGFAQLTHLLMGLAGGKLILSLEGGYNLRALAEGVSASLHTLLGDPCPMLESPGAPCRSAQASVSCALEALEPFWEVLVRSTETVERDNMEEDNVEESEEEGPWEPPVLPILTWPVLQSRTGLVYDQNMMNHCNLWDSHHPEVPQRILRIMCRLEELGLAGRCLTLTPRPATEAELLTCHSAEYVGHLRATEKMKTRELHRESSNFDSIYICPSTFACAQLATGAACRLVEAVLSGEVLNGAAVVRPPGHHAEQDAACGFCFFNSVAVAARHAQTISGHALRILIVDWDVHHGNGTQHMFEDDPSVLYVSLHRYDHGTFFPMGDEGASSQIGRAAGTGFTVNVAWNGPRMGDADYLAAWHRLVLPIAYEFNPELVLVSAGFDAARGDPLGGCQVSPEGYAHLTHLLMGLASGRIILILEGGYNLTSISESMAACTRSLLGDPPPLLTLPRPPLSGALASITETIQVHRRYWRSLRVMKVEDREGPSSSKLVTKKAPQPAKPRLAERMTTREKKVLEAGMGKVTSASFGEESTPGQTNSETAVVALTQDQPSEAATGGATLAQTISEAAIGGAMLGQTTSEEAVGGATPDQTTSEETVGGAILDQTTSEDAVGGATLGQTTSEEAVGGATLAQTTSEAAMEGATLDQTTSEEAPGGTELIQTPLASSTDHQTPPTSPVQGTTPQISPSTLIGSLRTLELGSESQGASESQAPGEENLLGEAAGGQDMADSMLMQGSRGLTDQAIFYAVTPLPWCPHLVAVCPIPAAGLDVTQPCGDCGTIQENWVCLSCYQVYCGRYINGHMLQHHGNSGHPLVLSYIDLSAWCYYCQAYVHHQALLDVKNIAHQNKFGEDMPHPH

[2] = target: T2, Histone deacetylase 3 (Homo sapiens, UniProt O15379); assay: Inhibition of human KDAC3 at 30 uM using FITC-labeled p53 acetylated peptide as substrate after 60 mins by fluorescence assay relative to control
[3] = target: T2, Histone deacetylase 3; assay: Inhibition of human KDAC3 using FITC-labeled p53 acetylated peptide as substrate after 60 mins by fluorescence assay
[4] = target: T3, Protein deacetylase HDAC6 (Homo sapiens) (UniProt Q9UBN7); settings: at 30 µM
T3 sequence (whole entry): T1 sequence (Q9UBN7 whole entry)
Description: Inhibition of human KDAC6 at 30 uM using FITC-labeled histone H4 acetylated peptide as substrate after 60 mins by fluorescence assay relative to control

[5] = target: T4, Histone deacetylase 1 (Homo sapiens, UniProt Q13547); assay: Inhibition of human KDAC1 using substrate A after 60 mins by fluorescence assay
[6] = target: T5, Histone deacetylase 8 (Homo sapiens, UniProt Q9BY41); assay: Inhibition of human KDAC8 after 60 mins by fluorescence assay
T5 sequence (Q9BY41 whole entry): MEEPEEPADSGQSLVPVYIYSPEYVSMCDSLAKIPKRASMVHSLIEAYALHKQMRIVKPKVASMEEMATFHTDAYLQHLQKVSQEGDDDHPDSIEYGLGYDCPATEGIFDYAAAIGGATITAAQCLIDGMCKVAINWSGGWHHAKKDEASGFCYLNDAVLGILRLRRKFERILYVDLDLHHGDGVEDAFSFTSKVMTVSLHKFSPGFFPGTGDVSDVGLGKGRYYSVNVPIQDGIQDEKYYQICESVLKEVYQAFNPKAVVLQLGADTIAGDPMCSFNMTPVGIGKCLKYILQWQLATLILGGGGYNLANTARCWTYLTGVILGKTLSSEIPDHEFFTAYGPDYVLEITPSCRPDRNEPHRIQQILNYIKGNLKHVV

[7] = target: T6, Histone deacetylase 8 (Homo sapiens) (UniProt Q9BY41); assay: Inhibition of human KDAC8 at 30 uM after 60 mins by fluorescence assay relative to control
T6 sequence (whole entry): T5 sequence (Q9BY41 whole entry)

[8] = target: T4, Histone deacetylase 1; assay: Inhibition of human KDAC1 at 30 uM using substrate A after 60 mins by fluorescence assay relative to control

T2 sequence (O15379 whole entry): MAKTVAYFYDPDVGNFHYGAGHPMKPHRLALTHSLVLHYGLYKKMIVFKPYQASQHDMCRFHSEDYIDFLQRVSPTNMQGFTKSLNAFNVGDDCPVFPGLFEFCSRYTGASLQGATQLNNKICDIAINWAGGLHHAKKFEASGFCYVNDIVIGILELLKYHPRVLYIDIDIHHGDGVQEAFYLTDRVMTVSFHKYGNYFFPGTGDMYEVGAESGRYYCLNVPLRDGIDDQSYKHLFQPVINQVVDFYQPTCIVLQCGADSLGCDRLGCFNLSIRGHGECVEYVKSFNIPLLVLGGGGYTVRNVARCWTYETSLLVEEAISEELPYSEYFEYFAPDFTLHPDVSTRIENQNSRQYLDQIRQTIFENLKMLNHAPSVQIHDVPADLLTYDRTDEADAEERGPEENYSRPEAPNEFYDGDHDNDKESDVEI
T4 sequence (Q13547 whole entry): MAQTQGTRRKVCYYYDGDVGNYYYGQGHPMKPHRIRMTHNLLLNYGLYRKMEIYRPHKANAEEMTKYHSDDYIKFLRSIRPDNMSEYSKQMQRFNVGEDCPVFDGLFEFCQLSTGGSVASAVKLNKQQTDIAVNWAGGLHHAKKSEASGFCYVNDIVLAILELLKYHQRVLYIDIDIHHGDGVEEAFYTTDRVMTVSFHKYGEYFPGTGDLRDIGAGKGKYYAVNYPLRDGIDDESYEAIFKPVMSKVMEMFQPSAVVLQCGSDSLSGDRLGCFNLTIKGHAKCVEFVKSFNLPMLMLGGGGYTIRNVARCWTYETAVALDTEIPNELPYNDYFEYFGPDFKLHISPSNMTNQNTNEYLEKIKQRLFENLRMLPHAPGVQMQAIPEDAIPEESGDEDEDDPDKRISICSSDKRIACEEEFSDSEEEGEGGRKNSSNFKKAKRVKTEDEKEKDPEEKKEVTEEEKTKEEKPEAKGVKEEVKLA

SMILES | IC50 [1] [µM] | inhibition [2] [%] | IC50 [3] [µM] | inhibition [4] [%] | IC50 [5] [µM] | IC50 [6] [µM] | inhibition [7] [%] | inhibition [8] [%]
NCCCC[C@@H]1N=C(c2ccccc2)c2ccccc2N(CCCCC(=O)NO)C1=O | 12.1 | 99.1 | 0.95 | 73.4 | 6.54 | > 30 | 7.7 | 79.5
COC(=O)CCCCN1C(=O)[C@H](CC(C)C)N=C(c2ccccc2)c2ccccc21 | > 30 | 0 | > 30 | 0 | > 30 | > 30 | 7.63 | 8.85
O=C(CC[C@@H]1N=C(c2ccccc2)c2ccccc2NC1=O)NC(c1ccccc1)(c1ccccc1)c1ccccc1 | > 30 | 0 | > 30 | 0 | > 30 | > 30 | 0 | 7.59
O=C(CCCCN1C(=O)[C@H](Cc2cncn2C(c2ccccc2)(c2ccccc2)c2ccccc2)N=C(c2ccccc2)c2ccccc21)NO | 4.74 | 93.4 | 2.55 | 89.9 | > 30 | > 30 | 1.38 | 22.3
CSCC[C@@H]1N=C(c2ccccc2)c2ccccc2N(CCCCC(=O)O)C1=O | > 30 | 0 | > 30 | 0 | > 30 | > 30 | 2.75 | 4.46
O=C(O)C[C@@H]1N=C(c2ccccc2)c2ccccc2NC1=O | > 30 | 0 | > 30 | 0 | > 30 | > 30 | 0 | 3.13
O=C(CCCNC(=O)C[C@@H]1N=C(c2ccccc2)c2ccccc2NC1=O)NO | 1.76 | 90.7 | 3.21 | 95 | 17.4 | > 30 | 45.1 | 63.5
C[C@@H](OCc1ccccc1)[C@@H]1N=C(c2ccccc2)c2ccccc2N(CCCCC(=O)NO)C1=O | 2.05 | 97.2 | 0.91 | 98.1 | 4.55 | 29.5 | 50.1 | 82.4
CC[C@H](C)[C@@H]1N=C(c2ccccc2)c2ccccc2N(CCCCC(=O)OC)C1=O | > 30 | 0 | > 30 | 0 | > 30 | > 30 | 2.38 | 2.83
CSCC[C@@H]1N=C(c2ccccc2)c2ccccc2NC1=O | > 30 | 0 | > 30 | 2.62 | > 30 | > 30 | 9.07 | 0
O=C(O)CC[C@H]1N=C(c2ccccc2)c2ccccc2NC1=O | > 30 | 0 | > 30 | 0 | > 30 | > 30 | 0 | 10.2
Cc1c(C)c(S(=O)(=O)NC(=N)NCCC[C@@H]2N=C(c3ccccc3)c3ccccc3N(CCCCC(=O)NO)C2=O)c(C)c2c1OC(C)(C)C2 | 16.2 | 94.6 | 4.29 | 70.2 | > 30 | > 30 | 22.6 | 39.1
O=C(O)CC[C@@H]1N=C(c2ccccc2)c2ccccc2NC1=O | > 30 | 0 | > 30 | 0 | > 30 | > 30 | 0 | 2.44
O=C(C[C@@H]1N=C(c2ccccc2)c2ccccc2NC1=O)NO | > 30 | 0 | > 30 | 0.88 | > 30 | > 30 | 12.2 | 9.99
O=C(CCCCN1C(=O)[C@H](Cc2cnc[nH]2)N=C(c2ccccc2)c2ccccc21)NO | 4.98 | 99 | 1.32 | 84.6 | 13.9 | > 30 | 42.4 | 61.4
CC(C)(C)OC(=O)NCCCC[C@@H]1N=C(c2ccccc2)c2ccccc2N(CCCCC(=O)O)C1=O | > 30 | 0 | > 30 | 0 | > 30 | > 30 | -2.29 | 6
COC(=O)CCCCN1C(=O)[C@H](Cc2cc3ccccc3n2C(=O)OC(C)(C)C)N=C(c2ccccc2)c2ccccc21 | > 30 | 0 | > 30 | 0 | > 30 | > 30 | 0 | 1.64
O=C(O)CCCCN1C(=O)CN=C(c2ccccc2)c2ccccc21 | > 30 | 0 | > 30 | 0 | > 30 | > 30 | 4.33 | 6.45
CC(C)(C)OC(=O)C[C@@H]1N=C(c2ccccc2)c2ccccc2N(CCCCC(=O)NO)C1=O | 6.43 | 91.5 | 4.15 | 80.6 | 15.7 | 22.4 | 62.3 | 64.1
CC(C)[C@@H]1N=C(c2ccccc2)c2ccccc2NC1=O | > 30 | 0 | > 30 | 3.25 | > 30 | > 30 | 0 | 0
O=C(O)CCCCN1C(=O)[C@H](Cc2ccccc2)N=C(c2ccccc2)c2ccccc21 | > 30 | 0.91 | > 30 | 0 | > 30 | > 30 | 6.22 | 11.9
O=C(CCCCN1C(=O)[C@H](Cc2ccccc2)N=C(c2ccccc2)c2ccccc21)NO | 1.98 | 97 | 0.49 | 95.1 | 8.51 | 12.7 | 68.6 | 75
COC(=O)CCCCN1C(=O)[C@H](CCCCNC(=O)OC(C)(C)C)N=C(c2ccccc2)c2ccccc21 | > 30 | 1.96 | > 30 | 0 | > 30 | > 30 | 1.03 | 8.22
O=C1CN=C(c2ccccc2)c2ccccc2N1 [RO-052921] | > 30 | 3.45 | > 30 | 0 | > 30 | > 30 | 2.82 | 7.95
